The values below come from publication PMC11254100 (Angewandte Chemie (International ed. in English), 2024).

The target in this assay is CAHEX:6HIS (Human immunodeficiency virus type 1 group M subtype B, UniProt P12493, A146C/E177C/M317A/W316A). The conditions noted are these: BLI, CAHEX:6HIS immobilized on HIS-affinity probes. In general terms: Biolayer interferometry detects binding as a change in optical thickness at a sensor tip.

As to Lenacapvir, the koff is on record as 2.978 ± 0.015 x10^−4 s^−1 and the kon is given as 1.040 ± 0.007 x10^4 M^−1s^−1.
